Laboratory results taken from patent US8354539B2, “Indole derivatives as IKK2 inhibitors” (Glaxo Group Limited, priority 2009, dated 2013).

Tested on: human peripheral blood mononuclear cells (PBMC)
Assay: Human peripheral blood mononuclear cell assay (LPS stimulated TNFa production)
Assay type: cell-based
Settings: read-out: pIC50 potency, inhibition of TNF production (converted)
Protocol: The cellular potency of compounds was assessed in human peripheral blood mononuclear cells (PBMC) by measuring their impact on lipopolysaccharide (LPS) stimulated TNFa production. PBMCs were prepared from heparinised human blood from normal volunteers by centrifugation on hystopaque in Accuspin tubes at 800 g for 20 minutes. The cells were collected from the interface, washed by centrifugation (1300 g, 10 minutes) and resuspended in assay buffer (RPMI1640 containing 10% foetal calf serum, 1% L-glutamine and 1% penicillin/streptomycin) at 1×10^6 cells/ml. […] The supernatant was removed and the concentrations of TNF determined by electrochemiluminescence assay using the MSD technology.
20 μl supernatant from PBMC plates or 40 μl from whole blood plates was transferred using the Biomek FX to a 96 well High-Bind MSD assay plate precoated with anti-hTNF alpha capture antibody and containing 25 μl of MSD human serum cytokine assay diluent. […] The plates were shaken at room temperature for a further 1 hour before washing again and adding 150 μl of MSD Read Buffer T (2×). Plates were then read on the MSD Sector 6000 plate reader. For the PBMC assay, supernatant addition to the MSD plates was followed immediately by 20 μl of MSD detection antibody, the plates were then sealed and shaken for 2 hours before addition of 90 μl of MSD Read Buffer P (2.5×). Plates were read on the MSD Sector 6000. […]

For `COCCS(=O)(=O)N1CCC(c2c[nH]c3c(C(N)=O)cc(-c4ccc5c(c4)CN(C(C)C)C5)cc23)CC1` [Compound of formula (I), 5-[2-(1-methylethyl)-2,3-dihydro-1H-isoindol-5-yl]-3-(1-{[2-(methyloxy)ethyl]sulfonyl}-4-piperidinyl)-1H-indole-7-carboxamide], which IC50 is on record?
The IC50 was less than 31.6 nM.
